The results in this text go back to PMC8213057, “Targeting ALK2: An Open Science Approach to Developing Therapeutics for the Treatment of Diffuse Intrinsic Pontine Glioma” (Journal of Medicinal Chemistry, 2020).

Bounds are passed on as bounds.

For one experiment, the target named is T1, CDK9/cyclin K (Homo sapiens, UniProt P50750).
T1 construct: purchased Reaction Biology Corporation
Put plainly: 375-member kinase panel. Type of experiment: biochemical. Conditions: Run 1, Run 2; for % enzyme activity: 1 μM; for remaining activity at 1 µM: read-out: % enzyme activity, 1 μM.

In another experiment the target is GSK3a (Homo sapiens, UniProt P49840). As to conditions: 1 μM; Run 1, Run 2.
Chain of GSK3a (P49840 whole entry): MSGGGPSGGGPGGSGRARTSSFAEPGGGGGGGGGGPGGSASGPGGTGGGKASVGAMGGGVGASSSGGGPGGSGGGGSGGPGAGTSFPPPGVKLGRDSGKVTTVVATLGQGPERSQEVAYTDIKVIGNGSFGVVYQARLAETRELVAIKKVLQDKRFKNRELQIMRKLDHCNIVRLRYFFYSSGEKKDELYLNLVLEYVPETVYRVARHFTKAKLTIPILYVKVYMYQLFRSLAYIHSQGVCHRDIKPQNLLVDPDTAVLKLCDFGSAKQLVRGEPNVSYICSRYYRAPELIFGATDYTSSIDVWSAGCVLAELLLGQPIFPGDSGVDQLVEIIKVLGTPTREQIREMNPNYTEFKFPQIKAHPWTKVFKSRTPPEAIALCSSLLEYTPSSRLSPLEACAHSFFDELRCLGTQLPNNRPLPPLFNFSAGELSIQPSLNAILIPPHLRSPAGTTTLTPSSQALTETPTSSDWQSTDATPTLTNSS
The target in a further experiment is IR (Homo sapiens, UniProt P06213). Conditions: 1 μM; Run 1, Run 2.
Chain of IR (P06213 28-1382): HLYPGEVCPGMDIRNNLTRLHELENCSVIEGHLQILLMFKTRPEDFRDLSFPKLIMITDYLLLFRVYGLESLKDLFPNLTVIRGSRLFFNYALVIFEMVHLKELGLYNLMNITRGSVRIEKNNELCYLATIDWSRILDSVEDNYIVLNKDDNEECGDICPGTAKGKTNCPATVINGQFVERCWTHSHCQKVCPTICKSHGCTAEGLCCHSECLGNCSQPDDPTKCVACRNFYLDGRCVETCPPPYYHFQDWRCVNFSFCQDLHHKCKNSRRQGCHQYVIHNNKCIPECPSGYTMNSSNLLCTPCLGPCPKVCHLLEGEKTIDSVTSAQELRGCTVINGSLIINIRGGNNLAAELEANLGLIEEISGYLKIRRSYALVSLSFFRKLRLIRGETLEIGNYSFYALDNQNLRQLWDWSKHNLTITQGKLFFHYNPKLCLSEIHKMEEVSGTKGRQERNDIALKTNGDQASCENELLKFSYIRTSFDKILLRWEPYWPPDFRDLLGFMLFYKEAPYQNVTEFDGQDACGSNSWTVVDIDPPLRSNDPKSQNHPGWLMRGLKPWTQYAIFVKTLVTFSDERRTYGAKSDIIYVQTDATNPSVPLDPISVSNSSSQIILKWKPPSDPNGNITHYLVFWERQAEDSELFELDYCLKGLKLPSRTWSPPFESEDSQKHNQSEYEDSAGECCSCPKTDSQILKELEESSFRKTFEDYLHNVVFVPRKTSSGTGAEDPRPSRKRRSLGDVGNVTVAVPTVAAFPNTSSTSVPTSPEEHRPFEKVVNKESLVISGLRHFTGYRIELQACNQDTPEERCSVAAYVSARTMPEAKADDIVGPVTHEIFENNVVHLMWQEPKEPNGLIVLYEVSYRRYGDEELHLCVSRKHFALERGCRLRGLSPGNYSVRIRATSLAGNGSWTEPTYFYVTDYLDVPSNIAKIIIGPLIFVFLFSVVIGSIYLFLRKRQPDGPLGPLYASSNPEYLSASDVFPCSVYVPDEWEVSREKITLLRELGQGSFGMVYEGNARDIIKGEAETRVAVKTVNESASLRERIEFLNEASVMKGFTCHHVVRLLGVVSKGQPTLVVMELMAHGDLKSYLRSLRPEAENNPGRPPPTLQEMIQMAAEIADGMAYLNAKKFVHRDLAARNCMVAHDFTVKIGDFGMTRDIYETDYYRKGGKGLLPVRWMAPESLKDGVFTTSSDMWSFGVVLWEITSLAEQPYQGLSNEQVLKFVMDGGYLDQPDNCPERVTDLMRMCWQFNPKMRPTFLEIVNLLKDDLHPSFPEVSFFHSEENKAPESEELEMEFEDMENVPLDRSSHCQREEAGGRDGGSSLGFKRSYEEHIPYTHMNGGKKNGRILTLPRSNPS
For the next experiment, the target named is T2, MEKK6 (Homo sapiens, UniProt O95382).
T2 sequence (O95382 1-1288): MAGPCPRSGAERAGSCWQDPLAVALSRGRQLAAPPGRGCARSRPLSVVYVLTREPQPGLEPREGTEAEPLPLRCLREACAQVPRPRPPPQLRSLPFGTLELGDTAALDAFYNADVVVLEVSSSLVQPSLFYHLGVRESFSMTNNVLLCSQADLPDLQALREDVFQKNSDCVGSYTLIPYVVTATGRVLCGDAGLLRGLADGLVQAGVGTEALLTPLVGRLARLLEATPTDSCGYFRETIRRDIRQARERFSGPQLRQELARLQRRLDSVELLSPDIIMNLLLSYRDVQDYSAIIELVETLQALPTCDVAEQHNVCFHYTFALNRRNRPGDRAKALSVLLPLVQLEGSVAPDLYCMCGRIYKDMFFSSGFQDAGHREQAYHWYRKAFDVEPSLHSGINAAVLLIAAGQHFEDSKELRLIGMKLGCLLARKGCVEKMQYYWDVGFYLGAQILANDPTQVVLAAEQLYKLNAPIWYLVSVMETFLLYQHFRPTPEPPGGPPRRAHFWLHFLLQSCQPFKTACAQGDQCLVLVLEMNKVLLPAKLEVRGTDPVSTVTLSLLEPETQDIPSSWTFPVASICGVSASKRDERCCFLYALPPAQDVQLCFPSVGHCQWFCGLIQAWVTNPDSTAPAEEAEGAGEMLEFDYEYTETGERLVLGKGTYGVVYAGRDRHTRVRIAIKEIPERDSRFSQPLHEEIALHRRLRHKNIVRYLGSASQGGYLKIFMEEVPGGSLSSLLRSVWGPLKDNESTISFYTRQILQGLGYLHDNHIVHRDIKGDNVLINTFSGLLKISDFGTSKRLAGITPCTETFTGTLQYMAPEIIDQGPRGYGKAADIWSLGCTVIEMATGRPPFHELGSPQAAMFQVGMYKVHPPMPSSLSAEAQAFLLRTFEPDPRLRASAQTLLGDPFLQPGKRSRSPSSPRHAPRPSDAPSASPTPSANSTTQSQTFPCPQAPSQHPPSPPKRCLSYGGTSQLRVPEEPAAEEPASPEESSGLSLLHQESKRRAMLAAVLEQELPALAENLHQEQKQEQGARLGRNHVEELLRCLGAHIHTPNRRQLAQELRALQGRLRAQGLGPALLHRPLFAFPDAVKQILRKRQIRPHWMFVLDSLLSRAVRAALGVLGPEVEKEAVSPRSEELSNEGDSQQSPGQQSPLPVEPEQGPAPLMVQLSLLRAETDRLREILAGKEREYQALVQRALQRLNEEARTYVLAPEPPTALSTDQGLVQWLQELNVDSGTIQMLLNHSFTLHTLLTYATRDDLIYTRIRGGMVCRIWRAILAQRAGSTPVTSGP
Conditions: 1 μM; Run 1, Run 2.

The next experiment has as its target P38b/MAPK11 (Homo sapiens, UniProt Q15759). As to conditions: 1 μM; Run 1, Run 2.
Another experiment deals with PDGFRa (Homo sapiens, UniProt P16234). As to conditions: 1 μM; Run 1, Run 2.
The next experiment addresses PLK2 (Homo sapiens, UniProt Q9NYY3). Conditions: 1 μM; Run 1, Run 2.
For another experiment, the target named is VRK2 (Homo sapiens, UniProt Q86Y07). As to conditions: 1 μM; Run 1, Run 2.
The target of the next experiment is CDK9/cyclin T1 (Homo sapiens, UniProt P50750). Put plainly: biochemical. Conditions: read-out: % enzyme activity, 1 μM; Run 1, Run 2.
Chain of CDK9/cyclin T1 (P50750 whole entry): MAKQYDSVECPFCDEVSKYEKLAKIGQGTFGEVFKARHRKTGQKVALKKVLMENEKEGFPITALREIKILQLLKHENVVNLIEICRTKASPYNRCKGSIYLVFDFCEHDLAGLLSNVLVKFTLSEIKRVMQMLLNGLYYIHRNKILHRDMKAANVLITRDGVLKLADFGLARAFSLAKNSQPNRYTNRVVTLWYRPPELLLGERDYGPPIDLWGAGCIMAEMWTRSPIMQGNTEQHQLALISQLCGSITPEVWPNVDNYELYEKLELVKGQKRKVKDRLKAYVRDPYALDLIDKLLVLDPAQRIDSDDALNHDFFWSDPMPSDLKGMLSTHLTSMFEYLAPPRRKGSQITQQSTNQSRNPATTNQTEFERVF
Chain of CDK9/cyclin T1 (O60563 whole entry partner): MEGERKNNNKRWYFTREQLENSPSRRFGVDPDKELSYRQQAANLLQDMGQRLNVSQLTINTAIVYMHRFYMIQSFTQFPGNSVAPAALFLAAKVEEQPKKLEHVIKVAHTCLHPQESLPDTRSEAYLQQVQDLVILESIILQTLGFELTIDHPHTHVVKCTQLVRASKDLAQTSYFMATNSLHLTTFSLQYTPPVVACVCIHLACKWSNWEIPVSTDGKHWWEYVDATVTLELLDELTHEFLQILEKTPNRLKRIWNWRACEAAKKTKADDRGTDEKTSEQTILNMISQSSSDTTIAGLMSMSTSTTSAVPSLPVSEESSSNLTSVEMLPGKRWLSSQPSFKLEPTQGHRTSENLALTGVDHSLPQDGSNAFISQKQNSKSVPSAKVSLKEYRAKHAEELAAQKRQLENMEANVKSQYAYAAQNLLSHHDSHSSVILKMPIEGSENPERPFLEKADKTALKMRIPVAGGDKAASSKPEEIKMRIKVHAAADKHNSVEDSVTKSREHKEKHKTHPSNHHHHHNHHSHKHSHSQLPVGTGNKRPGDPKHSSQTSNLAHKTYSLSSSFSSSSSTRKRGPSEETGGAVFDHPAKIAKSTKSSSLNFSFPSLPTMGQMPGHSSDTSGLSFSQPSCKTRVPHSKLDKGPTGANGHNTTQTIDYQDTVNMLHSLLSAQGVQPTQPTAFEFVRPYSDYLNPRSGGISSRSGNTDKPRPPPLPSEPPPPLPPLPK
The next experiment has as its target PIM3 (Homo sapiens, UniProt Q86V86). Put plainly: biochemical. Conditions: read-out: % enzyme activity, 1 μM; Run 1, Run 2.
A further experiment addresses SRPK1 (Homo sapiens, UniProt Q96SB4). Put plainly: biochemical. Conditions: read-out: % enzyme activity, 1 μM; Run 1, Run 2.
The next experiment addresses T3, TSSK2 (Homo sapiens, UniProt Q96PF2).
T3 sequence (Q96PF2 1-358): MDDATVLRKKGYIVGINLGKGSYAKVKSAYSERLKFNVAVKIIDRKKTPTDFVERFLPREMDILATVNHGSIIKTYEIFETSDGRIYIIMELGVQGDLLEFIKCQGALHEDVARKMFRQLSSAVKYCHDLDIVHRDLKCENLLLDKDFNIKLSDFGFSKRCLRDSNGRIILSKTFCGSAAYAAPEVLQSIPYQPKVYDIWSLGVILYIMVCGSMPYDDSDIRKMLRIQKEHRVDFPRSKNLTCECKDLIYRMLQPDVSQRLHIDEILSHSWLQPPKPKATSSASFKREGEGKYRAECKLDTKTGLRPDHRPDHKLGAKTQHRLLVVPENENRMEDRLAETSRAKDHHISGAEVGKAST
Put plainly: biochemical. As to conditions: read-out: % enzyme activity, 1 μM; Run 1, Run 2.

For a further experiment, the target named is T4, ZAP70 (Homo sapiens, UniProt P43403).
T4 sequence (P43403 1-619): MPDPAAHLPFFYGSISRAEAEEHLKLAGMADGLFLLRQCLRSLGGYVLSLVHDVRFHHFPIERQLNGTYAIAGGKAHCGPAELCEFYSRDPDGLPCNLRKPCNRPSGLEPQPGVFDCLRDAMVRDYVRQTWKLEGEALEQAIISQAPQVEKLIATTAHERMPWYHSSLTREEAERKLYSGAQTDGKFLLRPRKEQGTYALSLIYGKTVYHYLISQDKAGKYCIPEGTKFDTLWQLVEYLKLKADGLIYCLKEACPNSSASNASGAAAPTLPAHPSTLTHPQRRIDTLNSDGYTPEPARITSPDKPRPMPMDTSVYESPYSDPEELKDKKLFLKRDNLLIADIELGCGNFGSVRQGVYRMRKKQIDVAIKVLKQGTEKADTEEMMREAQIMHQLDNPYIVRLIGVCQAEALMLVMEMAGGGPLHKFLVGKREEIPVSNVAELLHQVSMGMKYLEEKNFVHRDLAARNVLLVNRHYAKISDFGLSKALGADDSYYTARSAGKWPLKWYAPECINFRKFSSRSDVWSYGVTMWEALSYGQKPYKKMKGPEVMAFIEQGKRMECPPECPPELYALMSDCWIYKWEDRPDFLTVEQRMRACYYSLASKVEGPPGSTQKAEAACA
Put plainly: biochemical. As to conditions: read-out: % enzyme activity, 1 μM; Run 1, Run 2.

T1 sequence (P50750 whole entry): as the sequence (P50750 whole entry) above
T1 sequence (O75909 whole entry partner): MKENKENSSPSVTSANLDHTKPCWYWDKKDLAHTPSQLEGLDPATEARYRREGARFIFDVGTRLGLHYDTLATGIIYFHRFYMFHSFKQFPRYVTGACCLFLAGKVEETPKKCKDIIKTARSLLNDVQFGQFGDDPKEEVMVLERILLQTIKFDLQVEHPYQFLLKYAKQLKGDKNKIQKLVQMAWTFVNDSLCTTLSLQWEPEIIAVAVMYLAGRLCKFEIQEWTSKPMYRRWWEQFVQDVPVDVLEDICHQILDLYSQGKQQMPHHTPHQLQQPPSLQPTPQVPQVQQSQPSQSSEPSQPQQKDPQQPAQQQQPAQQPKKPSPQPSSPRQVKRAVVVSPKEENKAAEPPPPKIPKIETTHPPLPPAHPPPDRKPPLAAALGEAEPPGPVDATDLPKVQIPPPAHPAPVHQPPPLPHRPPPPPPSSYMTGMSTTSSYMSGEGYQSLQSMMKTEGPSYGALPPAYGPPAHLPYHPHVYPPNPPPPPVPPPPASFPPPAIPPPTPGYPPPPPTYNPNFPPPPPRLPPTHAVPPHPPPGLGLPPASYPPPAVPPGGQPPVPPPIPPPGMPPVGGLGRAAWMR
Chain of SRPK1 (Q96SB4 whole entry): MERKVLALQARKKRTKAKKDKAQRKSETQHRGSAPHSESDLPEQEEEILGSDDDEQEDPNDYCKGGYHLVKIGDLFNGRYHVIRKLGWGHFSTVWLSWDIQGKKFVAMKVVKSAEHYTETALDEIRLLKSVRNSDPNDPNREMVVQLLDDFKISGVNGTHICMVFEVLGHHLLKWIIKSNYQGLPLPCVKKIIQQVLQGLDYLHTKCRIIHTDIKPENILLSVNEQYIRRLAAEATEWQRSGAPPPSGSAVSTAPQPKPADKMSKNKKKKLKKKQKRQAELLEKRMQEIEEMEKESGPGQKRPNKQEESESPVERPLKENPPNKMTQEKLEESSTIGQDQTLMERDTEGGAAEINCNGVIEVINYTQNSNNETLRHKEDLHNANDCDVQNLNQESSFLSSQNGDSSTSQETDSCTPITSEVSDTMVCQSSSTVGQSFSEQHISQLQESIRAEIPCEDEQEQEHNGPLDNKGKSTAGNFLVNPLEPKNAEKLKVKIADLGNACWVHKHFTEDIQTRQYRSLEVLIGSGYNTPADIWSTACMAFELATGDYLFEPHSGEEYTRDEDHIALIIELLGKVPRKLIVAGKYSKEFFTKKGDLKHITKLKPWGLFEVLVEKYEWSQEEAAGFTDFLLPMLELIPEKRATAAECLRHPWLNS
Chain of P38b/MAPK11 (Q15759 whole entry): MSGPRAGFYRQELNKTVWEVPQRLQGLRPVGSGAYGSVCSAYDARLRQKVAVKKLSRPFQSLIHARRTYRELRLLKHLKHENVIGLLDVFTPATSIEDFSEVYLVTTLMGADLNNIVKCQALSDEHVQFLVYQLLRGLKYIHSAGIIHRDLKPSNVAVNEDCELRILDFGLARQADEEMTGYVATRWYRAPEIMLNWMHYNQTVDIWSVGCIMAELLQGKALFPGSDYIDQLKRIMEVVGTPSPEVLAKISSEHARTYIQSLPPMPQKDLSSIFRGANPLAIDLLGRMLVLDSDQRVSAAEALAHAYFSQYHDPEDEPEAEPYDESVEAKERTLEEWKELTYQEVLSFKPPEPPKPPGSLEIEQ

Compound `COc1cc(-c2cncc(-c3ccc(N4CCN(C)CC4)cc3)c2C)cc(F)c1C(N)=O` [Compound 26a, 2-Fluoro-6-methoxy-4-(4-methyl-5-(4-(4-methylpiperazin-1-yl)phenyl)pyridin-3-yl)benzamide] came in with a CYP inhibition at CYP1A2 greater than 50 µM. The “% enzyme activity” value came to 96.95% on CDK9/cyclin K; 100.80% on GSK3a; 100.44% on IR; 96.75% on MEKK6; 92.20% at P38b/MAPK11; 81.22% on PDGFRa. Moreover, the “% enzyme activity” value came to 97.24% at PLK2 and 87.47% on VRK2. The remaining activity at 1 µM at CDK9/cyclin K came out at 97.5%; on CDK9/cyclin T1 it was 90.8%; at PIM3 it was 100%; at SRPK1, 112%; on TSSK2, 100%; on ZAP70 it was 96.2%.

For `COc1cc(-c2cncc(-c3ccc(N4C[C@@H](C)N(C)[C@@H](C)C4)cc3)c2C)cc(F)c1C(N)=O` [Compound 26c, 2-Fluoro-6-methoxy-4-(4-methyl-5-(4-((3R,5S)-3,4,5-trimethylpiperazin-1-yl)phenyl)pyridin-3-yl)benzamide], the CYP inhibition at CYP1A2 was greater than 50 µM. For the same compound, the “% enzyme activity” value on CDK9/cyclin K stood at 102.30%; at GSK3a, 101.44%; on IR, 97.15%; at MEKK6, 95.16%; on P38b/MAPK11, 95.51%; at PDGFRa it was 81.08%. Also, the “% enzyme activity” value at PLK2 turned out to be 102.38%; on VRK2 it was 89.63%. Moreover, the remaining activity at 1 µM on CDK9/cyclin K was determined as 106%; on CDK9/cyclin T1 it was 97.1%; on PIM3 it was 107%; at SRPK1 it was 89.3%; at TSSK2, 100%; at ZAP70, 98.7%.
